Assay [1] has as its system anti-AT1 receptor auto-antibodies. Nature of the assay: Neutralisation of patients' antibodies by pre-treatment with AT1 receptor peptides, read out in the cardiomyocyte bioassay. The following applies: for Neutralisation/inhibition of the agonistic effect of the auto-antibodies on the cells: antibodies of preeclampsia patients; for Patients' antibodies, pre-treated with peptide (beat frequency bioassay): antibody 1:40 + peptide; for Annulment of the effect of the antibody by epitope peptides: antibodies of hypertension sufferers. Format: cell-based, human. The text has this: (§1) Cultivated neo-natal rat heart cells were used as a bioassay.
To identify and characterise the AT1 receptor antibodies, a sensitive bioassay was used. […] Further, this agonistic effect was neutralised by a peptide corresponding to the second extra-cellular loop of the AT1 receptor. In order to identify the epitopes of the auto-antibodies on the second extra-cellular loops of the angiotensin II AT1 receptor, an attempt was made to neutralise the anti-AT1 receptor auto-antibodies with short overlapping peptides. […] These were the epitopes ENTNIT and AFHYESQ. In preeclampsia patients, the agonistic effect of the antibodies achieved via the AT1 receptor was only neutralised by the peptide AFHYESQ. This epitope has a special importance in this disease, as it was identified in all the patients examined. […] I.

The next assay deals with T1, AT1 receptor (Rattus norvegicus, UniProt P25095).
T1 construct: endogenous in cells; host or cells: primary culture of spontaneously pulsing neonatal rat cardiomyocytes
T1 sequence (P25095 1-359): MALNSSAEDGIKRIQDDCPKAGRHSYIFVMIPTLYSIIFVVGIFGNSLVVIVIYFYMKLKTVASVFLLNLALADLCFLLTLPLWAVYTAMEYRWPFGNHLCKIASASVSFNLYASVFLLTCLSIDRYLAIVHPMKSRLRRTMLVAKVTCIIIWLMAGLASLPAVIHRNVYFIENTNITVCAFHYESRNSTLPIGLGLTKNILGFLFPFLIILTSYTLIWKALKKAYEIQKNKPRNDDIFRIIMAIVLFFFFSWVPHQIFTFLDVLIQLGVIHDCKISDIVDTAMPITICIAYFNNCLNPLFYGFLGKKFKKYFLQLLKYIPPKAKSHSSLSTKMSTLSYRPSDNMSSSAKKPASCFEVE
Nature of the assay: Bioassay: beat frequency of spontaneously pulsing cultivated neo-natal rat heart cells (cardiomyocytes). Format: cell-based. The settings on record: for Influence of receptor blockers on the positively chronotropic effect of the auto-antibodies: cells stimulated with anti-AT1 receptor auto-antibody; for Influence on the positively chronotropic effect of angiotensin II: cells stimulated with angiotensin II.
Description: The bio-assay entails • spontaneously pulsing neo-natal cardiomyocytes in primary culture or • cardiomyocytes differentiated from undifferentiated embryonal stem cells • in one culture medium
as §1
To identify and characterise the AT1 receptor antibodies, a sensitive bioassay was used. […] In order to identify the epitopes of the auto-antibodies on the second extra-cellular loops of the angiotensin II AT1 receptor, an attempt was made to neutralise the anti-AT1 receptor auto-antibodies with short overlapping peptides. […] I.

Entries after “also recorded” stand apart in the source; their conditions may differ.

In the case of “loop II peptides: peptides portraying the part of the AT1 receptor corresponding to loop II (IHRNVFFIENTNITVCAFHYESQNSTL)”, the results for the “Neutralisation/inhibition of the agonistic effect of the auto-antibodies on the cells” value (“Neutralisation/inhibition” for short) in assay [1] and in assay [1] (listed as peptide corresponding to the second extra-cellular loop of the AT1 receptor) were “inhibit the antibody effect” and “neutralised”, respectively.

For the molecule `Cc1cc(Cn2cnc3c2C[C@@H](C(=O)O)N(C(=O)C(c2ccccc2)c2ccccc2)C3)ccc1N(C)C` [PD 123319], the “Influence of receptor blockers on the positively chronotropic effect of the auto-antibodies” value (“Influence of receptor blockers” for short) at AT1 receptor is recorded as “no influence”.

On to AFHYESQ, for which the “Patients' antibodies, pre-treated with peptide (beat frequency bioassay)” value (“Patients' antibodies, pre-treated” for short) in assay [1] (Patient No. 1) is reported as 1.2 ± 0.84; in assay [1] (Patient No. 2) it was 1.6 ± 1.24. Moreover, the “Annulment of the effect of the antibody by epitope peptides” value in assay [1] is “annul the effect of the antibody”. Further, in assay [1], the “Neutralisation/inhibition” value is recorded as “inhibits the effect; also recorded: neutralised”.

Turning to `CCCCc1nc(Cl)c(CO)n1Cc1ccc(-c2ccccc2-c2nn[nH]n2)cc1` [Losartan], on AT1 receptor, the “Influence on the positively chronotropic effect of angiotensin II” value is on record as “blocked” and the “Influence of receptor blockers” value is “stopped”. Further, at AT1 receptor (listed as Losastan), the “Influence on the positively chronotropic effect of angiotensin II” value was “inhibited” and the “Influence of receptor blockers” value is on record as “inhibited”.

Take ENTNIT: in assay [1], the “Annulment of the effect of the antibody by epitope peptides” value is listed as “annul the effect of the antibody”.

As for SHFYQTR [function-analog peptide], the “Patients' antibodies, pre-treated” value in assay [1] (Patient No. 1) worked out at 0.8 ± 1.16; in assay [1] (Patient No. 2), 0.8 ± 0.80. Moreover, in assay [1], the “Neutralisation/inhibition” value was “neutralise the antibodies”.

As for GYYFDTN [function-analog peptide], the “Patients' antibodies, pre-treated” value in assay [1] (Patient No. 1) was 2.4 ± 0.72; in assay [1] (Patient No. 2), 2.8 ± 1.20. In addition, in assay [1], the “Neutralisation/inhibition” value is “neutralise the antibodies”.

In the case of angiotensin II [angiotensin-II], the “Chronotropic effect on cardiomyocytes (beat frequency / pulsation rate)” value on AT1 receptor (agonist alone) was “increase of the beat frequency”.

For the origin of these results see patent publication US7745139B1, “Peptides of the AT1 receptor and their uses” (Max-Delbrück-Centrum für Molekulare Medizin, priority 1998, dated 2010).
